Experimental data as given in PMC4357465, “Tool Compounds Robustly Increase Turnover of an Artificial Substrate by Glucocerebrosidase in Human Brain Lysates” (PLoS ONE, 2015).
Several values for one entry are separate records, joined by “and”; a condition that tells them apart may be missing. Identical values can stand only once. Entries after “also recorded” stand apart in the source; their conditions may differ. Like-named read-outs stand apart in the source and are kept apart here.

Key:
Assay type in all cases: biochemical
[1] = biological target: T1, GBA1 in lysates from human cortex (Homo sapiens, UniProt P04062); assay: GBA1 tissue assay, 4MUG turnover in human cortex lysates; conditions: human cortex lysate 10 μg, with sodium taurocholate
T1 construct: Human cortex samples were obtained from deceased aged Caucasian subjects without any diagnosis of neurodegenerative disorders; tissue Tissue Solutions; Proteogenex; host or cells: human cortex (post mortem)
T1 sequence (P04062 40-536): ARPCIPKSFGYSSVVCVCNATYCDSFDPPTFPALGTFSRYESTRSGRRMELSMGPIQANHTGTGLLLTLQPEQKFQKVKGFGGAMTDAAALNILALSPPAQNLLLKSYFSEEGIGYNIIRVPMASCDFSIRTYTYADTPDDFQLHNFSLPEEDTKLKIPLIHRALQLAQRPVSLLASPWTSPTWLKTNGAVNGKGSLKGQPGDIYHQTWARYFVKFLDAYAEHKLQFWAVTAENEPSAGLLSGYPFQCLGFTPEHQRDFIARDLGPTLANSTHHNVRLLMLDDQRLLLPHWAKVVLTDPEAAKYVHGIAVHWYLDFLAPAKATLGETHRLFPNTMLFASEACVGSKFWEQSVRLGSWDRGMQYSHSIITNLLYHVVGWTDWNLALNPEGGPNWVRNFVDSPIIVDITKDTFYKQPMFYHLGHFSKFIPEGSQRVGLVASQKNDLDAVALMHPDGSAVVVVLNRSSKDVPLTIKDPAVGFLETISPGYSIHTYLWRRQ
Protocol: (§1) Brain lysates were prepared by mechanical homogenization of mouse brain and human cortex in 10x weight/volume of the homogenization buffer used in the GBA1 enzymatic cell-free assay (250 mM Sucrose, 10 mM Tris pH = 7.5, 1 mM EDTA, 0.25% Triton X-100 solution, protease inhibitors, phosphatase inhibitors I and III, PMSF). Human cortex was acquired from brain banks (Tissue Solutions: http://www.tissue-solutions.com; Proteogenex: http://www.proteogenex.com). Human cortex samples were obtained from deceased aged Caucasian subjects without any diagnosis of neurodegenerative disorders. Mouse brain was obtained from 4–7 month old C57BL/6J mice. All mouse experiments were performed in accordance with the specifications of both the National Institutes of Health Guide for the Care and Use of Laboratory Animals, studies were approved by Pfizer’s Internal Animal Care and Use Committee (IACUC).
(§2) Prior to 30 min lysis on ice, human brain samples were also sonicated for 15 seconds as this step was needed to fully extract GBA1 (data not shown). Samples were then centrifuged at 20,000g for 15 minutes at 4°C. Supernatant was collected, and used for activity assays and Western blots. Protein concentration was determined using the Pierce BCA protein assay kit. Tissue lysates and pellets were stored at -80°C until use. For enzymatic activity assays, lysates were subjected only to one free-thaw cycle. Independent replicates were obtained using brain lysates from either different human subjects or different mice.
(§3) GBA1 activity in tissues was measured using the assay conditions described in the previous section. 10 μg of protein/well was used for the activity experiments, unless stated otherwise. Brain tissue lysates were diluted to 0.4 μg/ μl of protein in the same homogenization buffer, as described above. 25 μl of diluted lysate was added to the plate (Costar, 7200567). Lysates were then incubated on ice in the presence or absence of a compound for 30 minutes. 100 μl of assay buffer was then added to the plate. The same assay buffer was used as in the cell free/recombinant experiments and processed as described above.

[2] = tested on: GBA1 in lysates from human cortex; assay: as above; conditions: human cortex lysate 10 μg, without sodium taurocholate
Protocol: as §1, §2, §3

purified human GBA1 = biological target: T2, purified human GBA1 (Homo sapiens, UniProt P04062); assay: GBA1 enzymatic cell-free assay, turnover of 4MUG
T2 construct: purchased R&D Systems 7410-GH-10; host or cells: alternatively made in house: baculovirus (pFastBac-1), expressed in SF-9 or SF-21 cells, purified from conditioned media
T2 sequence (P04062 40-536): T1 sequence (P04062 40-536)
Protocol: (§4) After incubation, 100 μl of assay buffer was added to the plate. The assay buffer was composed of 0.1 M citric acid and 0.2 M sodium phosphate dibasic adjusted to pH = 5.4 unless stated otherwise (McIlvaine Buffer). […] For IC50 and EC50 experiments using compounds an assay buffer of pH 5.4 was used.
(§5) The substrate, 4-methylumbelliferyl β-D-glucopyranoside (4MUG, Sigma, M3633) was then added to the plate to a final concentration of 1.7 mM (25 μl). 4MUG was freshly solubilized in water at 37°C prior to each experiment. The recombinant protein, compound, assay buffer, and substrate were incubated at 37°C for 30 minutes.
The specific activity was calculated off the 4MU standard curve by converting the relative fluorescence units (RFUs) to the concentration of the fluorescent product (GraphPad Prism 5.1). This interpolated value was then used to calculate the specific activity of the recombinant protein which was expressed as nmol/hr/ng protein for recombinant protein and nmol/hr/mg for tissue lysates (GBA1 tissue assay). The standard curve was always diluted in the same assay buffer as the samples, including the same pH. For experiments testing activity of GBA1 at different pH, a standard curve for each pH condition was used to calculate specific activity. When testing different pH conditions, buffer solutions were adjusted to obtain the desired pH using the McIlvaine’s Buffer recipe, and the pH of the buffer was verified. All assay buffers used in the pH experiments contained sodium taurocholate to a final concentration of 3.1 mM.
(§6) In experiments directly comparing enzymatic activities of GBA1, GBA2 and GBA3 (S1 Fig., S2 Fig. c, d) the following conditions were used. […] A 10-fold intermediate solution of compound serial dilution was prepared in an assay buffer; half log dilutions were used. […] 2 mM solution of 4MUG was prepared in an assay buffer. To start the reaction, 4.5 μl/well of this solution was added to the enzyme plate and was incubated for 30 minutes at 37°C. To stop the reaction, a 1M glycine solution, adjusted to pH = 10 using 1M NaOH was used. […] To test the effect of sodium taurocholate (Sigma, T4009), the assay was performed using the same procedure described in this paragraph. The assay buffer contained either 0mM (same as above), 3 mM, 7 mM or 20 mM Sodium Taurocholate.

recombinant GBA3 = biological target: T3, recombinant GBA3 (Homo sapiens, UniProt Q9H227); assay: cell-free 4MUG assay with recombinant GBA3; conditions: for less potent against GBA3 than GBA1: selectivity GBA1 over GBA3
T3 construct: purchased R&D Systems 5969-GH-10
T3 sequence (Q9H227 1-469): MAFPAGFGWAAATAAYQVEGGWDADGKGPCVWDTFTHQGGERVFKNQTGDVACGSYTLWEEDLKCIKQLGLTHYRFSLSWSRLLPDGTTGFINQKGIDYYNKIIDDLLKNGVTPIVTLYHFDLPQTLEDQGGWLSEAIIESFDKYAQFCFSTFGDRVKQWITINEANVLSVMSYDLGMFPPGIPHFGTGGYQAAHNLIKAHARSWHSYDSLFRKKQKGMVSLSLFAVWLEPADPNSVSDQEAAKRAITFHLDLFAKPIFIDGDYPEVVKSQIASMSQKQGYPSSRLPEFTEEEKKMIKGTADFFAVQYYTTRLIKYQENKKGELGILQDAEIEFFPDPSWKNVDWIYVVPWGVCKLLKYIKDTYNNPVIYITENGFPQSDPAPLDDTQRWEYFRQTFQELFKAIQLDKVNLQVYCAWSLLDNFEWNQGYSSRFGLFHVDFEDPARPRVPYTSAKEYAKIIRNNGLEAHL
Protocol: as §4, §5, §6

With O[C@H]1[C@H](O)[C@@H](O)[C@@H]2O[C@@H]2[C@@H]1O [CBE] the “% inhibition + NaTc” value ([1]; 1mM) was 86 ± 4% and ~ 90%, the “% inhibition - NaTc” value ([2]; 1mM) was 31 ± 8% and ~ 30% and the “inhibition of GBA1 activity” value (purified human GBA1; 1 mM) was “more than 90%”. For the same molecule, the “effect on activity of recombinant GBA3” value (recombinant GBA3; dose response, within the concentrations tested) was “did not inhibit; also recorded: does not alter activity”.
In the case of OC[C@H]1CNC[C@@H](O)[C@@H]1O [Isofagomine, isofagomine], the “% inhibition + NaTc” value ([1]; 1 μM) is reported as ~ 90%, the inhibition at 1 µM ([1]; 1 μM, read-out: % inhibition + NaTc) is reported as 92 ± 2% and the “% inhibition - NaTc” value ([2]; 1 μM) is reported as 27 ± 4%. The “% inhibition - NaTc” value ([2]; 1 μM, listed as isofagomine) was ~ 30%, the inhibition at 1 µM (purified human GBA1; read-out: inhibition of GBA1 activity) was > 90% and the inhibition at 1 µM (purified human GBA1; with sodium taurocholate, read-out: GBA1 % inhibition + NaTc) was 95.9 ± 3.2%. The inhibition at 1 µM (purified human GBA1; without sodium taurocholate, read-out: GBA1 % inhibition - NaTc) was 92.1 ± 2.3%, the “effect on GBA3 activity” value (recombinant GBA3; 1 μM) was “did not have any substantial effect” and the “less potent against GBA3 than GBA1” value (recombinant GBA3) was > 100 fold. The “less potent against GBA3 than GBA1” value (recombinant GBA3; listed as isofagomine) was ≥ 100 fold.
